Laboratory results from PMC4511154 (Journal of molecular microbiology and biotechnology, 2015).
Values belong to the molecule of their own block, whether it stands above or below them.

Tests used:
TagK-TF^His6 = TagK-TF^His6 (Bacillus licheniformis, UniProt Q65EY9); test: coupled assay LacD/TPI/G3PDH, NADH oxidation at […] nm; assay type: biochemical; conditions: read-out: % residual activity at 10 mM
purified protein = substrate: O=C(COP(=O)(O)O)[C@@H](O)[C@@H](O)[C@H](O)CO; test: purified protein; assay type: biochemical, Bacillus licheniformis; conditions: 2 mM ATP, 10 mM MgCl2, 50 mM Tris-HCl pH 8.0, 25 °C

- remaining activity at 10000 µM (TagK-TF^His6): 43%
Molecule: O=P(O)(O)OC[C@H]1OC(O)(CO)[C@@H](O)[C@H]1O (stereo partly drawn) [Tag-6P, D-tagatose-6-phosphate]

- remaining activity at 10000 µM (TagK-TF^His6): 69%
Molecule: O=P(O)(O)OC[C@H]1OC(O)(CO)[C@@H](O)[C@@H]1O (stereo partly drawn) [Fru-6P, D-fructose 6-phosphate]

B1: TagK-TF^His6 (Bacillus licheniformis DSM 13 = ATCC 14580) (protein)
chain: MIYTCTMNTAVDLFVETDELLPDVVNRTKDEDYQPNGKGVNISFMLKRLGLDNTALGFTGGFTGRFIENELLNEKIVTDFVEVEGISRINIFINSTREFKIVNKGPLISEARKQELINKIRQIPPGRFLFISGSLPRGVPDDMYLSLSEIAAENKLKLILDISSPVLLDCLSYHPYLIKPNEQELAAFFSRKKALSEEEIIHCGKELLDRGAERVLISRGKDGALYLDRQRTLKATAAKGKVVNTACAGDAMLAVFVGKQELGCSVPEALRHASAAGSLTAFSKGLGDVSKLDQTASQIQITHL
- Km (purified protein): 3.2 ± 0.4 mM
- kcat (purified protein): 0.44 ± 0.01 s⁻¹
